Measured values taken from patent US8629328B2 (Monsanto Technology LLC, priority 2006, dated 2014).
Like-named read-outs stand apart in the source and are kept apart here.

What was measured:
[1] = system: transformed cotton plants comprising a DMO coding region
Text: Several DNA constructs carrying a DMO coding region as disclosed herein with a transit peptide (e.g., PsRbcS CTP, CTP1, CTP2) under the control of plant gene expression elements such as a promoter (e.g. PC1SV, FMV, or e35S), and a 3′UTR (e.g. E6; Accession #U30508) were produced and transformed into cotton (Gossypium hirsutum) as follows. Nucleotide sequences/and or patent references for various expression elements are disclosed in co-pending application U.S. Ser. No. 60/891,675. Media used are noted in Table 13.
Cotton transformation was performed, for instance as described according to U.S. Patent Application Publication 20040087030, via an embryogenic approach. Explants of cotton cv Coker 130 were grown in vitro and with a liquid suspension of Agrobacterium tumefaciens carrying a DNA construct of interest, using selection on kanamycin containing media. Putative transgenic plantlets were then transferred to soil to obtain mature cotton plants.

[2] = system: corn inbreds 01CSI6 and LH244; details: 0.5 lb/a at V3 followed by 1 lb/a at V8
Text: Transgenic corn plants were produced by the methods known in the art such as WO9506722 and US patent application 20040244075. […] Six events from each of the six constructs were used. […] The entire plot was fertilized uniformly to obtain an agronomically acceptable crop. A soil insecticide such as Force® 3G (Syngenta Crop Protection, Greensboro, N.C., USA) at 5 oz. per 1000 ft. of row for control of corn rootworm was applied at planting time. If black cutworm infestation was observed, POUNCE® 3.2EC at 4 to 8 oz. per acre rate (FMC Corporation, Philadelphia, Pa.) was used. In addition, an insecticide spray program was used to control all above ground lepidopteran pests including European corn borer, corn earworm, and fall armyworm. POUNCE® 3.2EC at 4 to 8 oz. per acre was applied every 3 weeks to control lepidopteran pests; about 4 applications were made. The plot was kept weed free with a pre-emergence application of a herbicide such as Harness® Xtra 5.6 L (Monsanto, St. Louis, Mo.) and Degree Xtra® (Monsanto, St. Louis, Mo.).
Brace root injury was evaluated visually by counting the number of plants in a row showing an “atypical” morphology of having the brace roots fused as compared to a typical morphology of “finger-like” structure.

[3] = system: MARESTAIL (KY) Resistant; assay: Control of marestail by dicamba or glyphosate, treated at rosette leaf stage; format: in vivo, Conyza canadensis; details: dicamba formulation 280 g/ha
Text: (§1) Marestail is one of the major weeds in a crop field. Marestail is effectively controlled by glyphosate, but the development of methods for controlling this common weed with other herbicides is important to minimize opportunities for herbicide tolerance to develop.

[4] = system: MARESTAIL (CA) Resistant; assay: as above; format: in vivo, Conyza canadensis; details: dicamba formulation 280 g/ha
Text: as §1

For `COc1c(Cl)ccc(Cl)c1C(=O)O` [dicamba, 3,6-dichloro-o-anisic acid], the “tolerance to subsequent post-emergent treatment” value ([1]; 0.5 lb/acre at V3-4 followed by 1 or 2 lb/acre at V5 or later stages) was “still tolerant”, the tolerance ([1]; post-emergent at V4-5 growth stage, 561 g ae/ha (0.5 lb/a)) was “tolerant” and the “tolerance of R1 transgenic seeds and plants” value ([1]; pre-emergence or pre-emergence and post-emergence dicamba treatment) was “tolerant”. The “Percentage brace root injury” value ([2]; 01CSI6, susceptible inbred to dicamba) was 95.4%, the “Percentage brace root injury” value ([2]; LH244, resistant inbred to dicamba) was 93.8% and the “% Injury (21 DAT)” value [3] was “about 91%”. The “% Injury (21 DAT)” value [4] was “about 83%”.
